# Test results from patent EP0052564A1, “Derivatives of 2-thiazolyl-oxamic acid substituted in position 4 by a thienyl or furyl radical, their preparation and use as pharmaceutical preparations” (PIERRE FABRE S.A., priority 1980, dated 1982).
# Experiment: Solubility (in water, ethanol, methyl pyrrolidone)
# Assay type: physicochemical
# Conditions: ethanol
row,Solubilités : dans l'éthanol [%],Compound
1,1,"CCOC(=O)C(=O)Nc1nc(-c2cccs2)cs1 [Exemple 1, (α thienyl-4 thiazolyl-2) oxamate d'éthyle]"
2,3,"CCOC(=O)C(=O)Nc1nc(-c2ccco2)cs1 [Exemple 7, (α furyl-4 thiazolyl-2) oxamate d'éthyle]"

# Same assay, conditions: methyl pyrrolidone
row,Compound,Solubilités : dans la méthyl pyrrolidone [%]
1,"O=C(O)C(=O)Nc1nc(-c2cccs2)cs1 [Exemple 3, (α thienyl-4 thiazolyl-2) oxamate de sodium]",15
2,(α thienyl-4 thiazolyl-2) oxamate de zinc [Exemple 4],50
3,"O=C(O)C(=O)Nc1nc(-c2cccs2)cs1 [Exemple 2, Acide (α thienyl-4 thiazolyl-2) oxamique]",50
4,"CCOC(=O)C(=O)Nc1nc(-c2cccs2)cs1 [Exemple 1, (α thienyl-4 thiazolyl-2) oxamate d'éthyle]",50
5,(α thienyl-4 thiazolyl-2) oxamate d'éthanolamine [Exemple 5],15

# Continued, values first:
row,Solubilités : dans la méthyl pyrrolidone [%],Compound
1,50,"CCOC(=O)C(=O)Nc1nc(-c2ccsc2)cs1 [Exemple 6, ( β thienyl-4 thiazolyl-2) oxamate d'éthyle]"
2,25,"O=C(O)C(=O)Nc1nc(-c2ccco2)cs1 [Exemple 8, Acide (α furyl-4 thiazolyl-2) oxamique]"
3,50,"CCOC(=O)C(=O)Nc1nc(-c2ccco2)cs1 [Exemple 7, (α furyl-4 thiazolyl-2) oxamate d'éthyle]"

# Same assay, conditions: water
row,Compound,Solubilités : dans l'eau
1,"O=C(O)C(=O)Nc1nc(-c2cccs2)cs1 [Exemple 3, (α thienyl-4 thiazolyl-2) oxamate de sodium]",insoluble
2,(α thienyl-4 thiazolyl-2) oxamate de zinc [Exemple 4],insoluble
3,"O=C(O)C(=O)Nc1nc(-c2cccs2)cs1 [Exemple 2, Acide (α thienyl-4 thiazolyl-2) oxamique]",insoluble
4,"CCOC(=O)C(=O)Nc1nc(-c2cccs2)cs1 [Exemple 1, (α thienyl-4 thiazolyl-2) oxamate d'éthyle]",insoluble
5,(α thienyl-4 thiazolyl-2) oxamate d'éthanolamine [Exemple 5],insoluble

# The next lines start with the values.
row,Solubilités : dans l'eau,Compound
1,insoluble,"CCOC(=O)C(=O)Nc1nc(-c2ccsc2)cs1 [Exemple 6, ( β thienyl-4 thiazolyl-2) oxamate d'éthyle]"
2,insoluble,"O=C(O)C(=O)Nc1nc(-c2ccco2)cs1 [Exemple 8, Acide (α furyl-4 thiazolyl-2) oxamique]"
3,insoluble,"CCOC(=O)C(=O)Nc1nc(-c2ccco2)cs1 [Exemple 7, (α furyl-4 thiazolyl-2) oxamate d'éthyle]"
